Reference: patent US8119563B2, “N-substituted azacycles” (FMC Corporation, priority 2003, dated 2012)

Test system: tobacco budworm (Heliothis virescens [Fabricius])
Test: surface-treated diet test, insecticidal activity against tobacco budworm
Assay type: in vivo
Details: 0.25 millimoles of candidate insecticide on the surface of the diet, second instar larvae, five-day exposure; for Percent Mortality: compared to total number of insects infested; for Percent Growth Inhibition: inhibition of insect weight relative to untreated controls
Procedure: Candidate insecticides were evaluated for activity against the tobacco budworm (Heliothis virescens [Fabricius]) in a surface-treated diet test.
In this test one mL of molten (65-70° C.) wheat germ-based artificial diet was pipetted into each well of a four by six (24 well) multi-well plate (ID# 430345-15.5 mm dia.×17.6 mm deep; Corning Costar Corp., One Alewife Center, Cambridge, Mass. 02140). The diet was allowed to cool to ambient temperature before treatment with candidate insecticide.
For a determination of insecticidal activity, solutions of the candidate insecticides were prepared for testing using a Packard 204DT Multiprobe® Robotic System (Packard Instrument Company, 800 Research Parkway, Meriden, Conn. 06450), in which the robot first diluted a standard 50 millimolar DMSO solution of candidate insecticide with a 1:1 water/acetone solution (V/V) in a ratio of 1:7 stock solution to water/acetone. The robot subsequently pipetted 40 microliters of the so-prepared solution onto the surface of the diet in each of three wells in the 24 multi-well plate. The process was repeated with solutions of seven other candidate insecticides. Once treated, the contents of the multi-well plate were allowed to dry, leaving 0.25 millimoles of candidate insecticide on the surface of the diet, or a concentration of 0.25 millimolar. Appropriate untreated controls containing only DMSO on the diet surface were also included in this test.
For evaluations of the insecticidal activity of a candidate insecticide at varying rates of application, the test was established as described above using sub-multiples of the standard 50 millimolar DMSO solution of candidate insecticide. For example, the standard 50 millimolar solution was diluted by the robot with DMSO to give 5, 0.5, 0.05, 0.005, 0.0005 millimolar, or more dilute solutions of the candidate insecticide. In these evaluations there were six replicates of each rate of application placed on the surface of the diet in the 24 multi-well plate, for a total of four rates of application of candidate insecticide in each plate.
In each well of the test plate was placed one second instar tobacco budworm larvea, each weighing approximately five milligrams. After the larvae were placed in each well, the plate was sealed with clear polyfilm adhesive tape. The tape over each well was perforated to ensure an adequate air supply. The plates were then held in a growth chamber at 25° C. and 60% relative humidity for five days (light 14 hours/day).
After the five-day exposure period insecticidal activity for each rate of application of candidate insecticide was assessed as percent inhibition of insect weight relative to the weight of insects from untreated controls, and percent mortality when compared to the total number of insects infested.
The test compounds of formula I are identified by numbers that correspond to those in Table 1.

Structure (SMILES) | Percent Mortality | Percent Growth Inhibition
CCn1nnc(-c2ccc(C[N+]3([O-])CCC(O)(C(c4ccc(C(F)(F)F)cc4)c4ccc(C(F)(F)F)cc4)CC3)cc2)n1 (stereo not drawn) [Compound 113] | 100% | 100%
OC1(C(c2ccc(C(F)(F)F)cc2)c2ccccc2Cl)CCN(Cc2ccc(Oc3ncccn3)cc2)CC1 (stereo not drawn) [Compound 18] | 100% | 100%
CCON=Cc1ccc(C[N+]2(O)CCC(O)(C(c3ccc(OC(F)(F)F)cc3)c3ccc(OC(F)(F)F)cc3)CC2)cc1.O=C([O-])C1CCCCC1 (stereo not drawn) [Compound 493] | 100% | 100%
O=S(=O)([O-])C(F)(F)C(F)(F)C(F)(F)C(F)(F)C(F)(F)C(F)(F)C(F)(F)C(F)(F)C(F)(F)F.OC1(C(c2ccc(C(F)(F)F)cc2)c2ccc(C(F)(F)F)cc2)CC[N+](O)(Cc2ccc(Oc3ccc(Cl)nn3)cc2)CC1 (stereo not drawn) [Compound 520] | 100% | 100%
OC1(C(c2ccc(OC(F)(F)F)cc2)c2ccccc2Cl)CCN(Cc2ccc(Oc3ccccn3)cc2)CC1 (stereo not drawn) [Compound 437] | 100% | 100%
CCON=Cc1ccc(C[N+]2(O)CCC(O)(C(c3ccc(OC(F)(F)F)cc3)c3ccc(OC(F)(F)F)cc3)CC2)cc1.O=S(=O)([O-])C(F)(F)C(F)(F)C(F)(F)C(F)(F)C(F)(F)C(F)(F)C(F)(F)C(F)(F)F (stereo not drawn) [Compound 495] | 100% | 100%
[O-][N+]1(Cc2ccc(-c3ncccn3)cc2)CCC(O)(C(c2ccc(OC(F)(F)F)cc2)c2ccc(OC(F)(F)F)cc2)CC1 (stereo not drawn) [Compound 116] | 100% | 100%
CC(C)(C)c1ccc(C(c2ccc(OC(F)(F)F)cc2)C2(O)CC[N+]([O-])(Cc3ccc(Oc4ccccn4)cc3)CC2)cc1 (stereo not drawn) [Compound 335] | 100% | 100%
O=C(O)CC(O)(CC(=O)O)C(=O)[O-].OC1(C(c2ccc(C(F)(F)F)cc2)c2ccc(C(F)(F)F)cc2)CC[N+](O)(Cc2ccc(Oc3ccc(Cl)nn3)cc2)CC1 (stereo not drawn) [Compound 488] | 100% | 100%
CON=C(Cl)c1ccc(CN2CCC(O)(C(c3ccc(OC(F)(F)F)cc3)c3ccc(OC(F)(F)F)cc3)CC2)cc1 [Compound 277] | 100% | 100%
CCS(=O)(=O)[O-].OC1(C(c2ccc(C(F)(F)F)cc2)c2ccc(C(F)(F)F)cc2)CC[N+](O)(Cc2ccc(Oc3ccc(Cl)nn3)cc2)CC1 (stereo not drawn) [Compound 518] | 100% | 100%
[O-][N+]1(Cc2ccc(Oc3ccccn3)cc2)CCC(O)(C(c2ccc(OC(F)(F)F)cc2)c2cc(Cl)ccc2Cl)CC1 (stereo not drawn) [Compound 460] | 100% | 100%
OC1(C(c2ccc(OC(F)(F)F)cc2)c2cc(Cl)ccc2Cl)CCN(Cc2ccc(Oc3ccccn3)cc2)CC1 (stereo not drawn) [Compound 443] | 100% | 100%
[O-][N+]1(Cc2ccc(C=NOCCF)cc2)CCC(O)(C(c2ccc(OC(F)(F)F)cc2)c2ccc(OC(F)(F)F)cc2)CC1 (stereo not drawn) [Compound 389] | 100% | 100%
[O-][N+]1(Cc2ccc(Oc3ccccn3)cc2)CCC(O)(C(c2ccc(OC(F)(F)F)cc2)c2ccc(Cl)cc2F)CC1 (stereo not drawn) [Compound 463] | 100% | 100%
CCON=Cc1ccc(C[N+]2([O-])CCC(O)(C(O)(c3ccc(OC(F)(F)F)cc3)c3ccc(OC(F)(F)F)cc3)CC2)cc1 (stereo not drawn) [Compound 424] | 100% | 100%
CCON=Cc1ccc(C[N+]2([O-])CCC(O)(C(c3ccc(OC(F)(F)F)cc3)c3ccc(Cl)cc3Cl)CC2)cc1 (stereo not drawn) [Compound 453] | 100% | 100%

Structure (SMILES) | Percent Mortality | Percent Growth Inhibition
[O-][N+]1(Cc2ccc(Oc3ccccn3)cc2)CCC(O)(C(c2ccc(OC(F)(F)F)cc2)c2cc(Cl)cc(Cl)c2)CC1 (stereo not drawn) [Compound 457] | 100% | 100%
CON=C(Cl)c1ccc(C[N+]2(O)CCC(O)(C(c3ccc(OC(F)(F)F)cc3)c3ccc(OC(F)(F)F)cc3)CC2)cc1.O=C(O)CC(O)(CC(=O)O)C(=O)[O-] (stereo not drawn) [Compound 501] | 100% | 100%
[O-][N+]1(Cc2ccc(Oc3ccc(Cl)nn3)cc2)CCC(O)(C(c2ccc(OC(F)(F)F)cc2)c2ccc(OC(F)(F)F)cc2)CC1 (stereo not drawn) [Compound 412] | 100% | 100%
OC1(C(c2ccc(OC(F)(F)F)cc2)c2ccc(C(F)(F)F)cc2)CCN(Cc2ccc(Oc3ncccn3)cc2)CC1 (stereo not drawn) [Compound 2] | 100% | 100%
CC(=O)NCC1(C(c2ccc(C(F)(F)F)cc2)c2ccc(C(F)(F)F)cc2)CCN(Cc2ccc(Oc3ncccn3)cc2)CC1 [Compound 451] | 0% | 100%
N#CCON=Cc1ccc(C[N+]2([O-])CCC(O)(C(c3ccc(OC(F)(F)F)cc3)c3ccc(OC(F)(F)F)cc3)CC2)cc1 (stereo not drawn) [Compound 353] | 100% | 100%
OC1(C(c2ccc(OC(F)(F)F)cc2)c2ccc(OC(F)(F)F)cc2)CCN(Cc2ccc(C3OCCO3)cc2)CC1 [Compound 263] | 100% | 100%
OC1(C(c2ccc(OC(F)(F)F)cc2)c2ccc(OC(F)(F)F)cc2)CCN(Cc2ccc(Oc3ncccc3C(F)(F)F)cc2)CC1 [Compound 30] | 100% | 100%
CCOC(C)C(=O)[O-].OC1(C(c2ccc(OC(F)(F)F)cc2)c2ccc(OC(F)(F)F)cc2)CC[N+](O)(Cc2ccc(Oc3ccccn3)cc2)CC1 (stereo not drawn) [Compound 503] | 100% | 100%
Cc1ccc(Oc2ccc(CN3CCC(O)(C(c4ccc(OC(F)(F)F)cc4)c4ccc(OC(F)(F)F)cc4)CC3)cc2)nc1 [Compound 272] | 100% | 100%
O=C(Nc1ccc(C[N+]2([O-])CCC(O)(C(c3ccc(OC(F)(F)F)cc3)c3ccc(OC(F)(F)F)cc3)CC2)cc1)OCC1CC1 (stereo not drawn) [Compound 404] | 100% | 100%
OC1(C(c2ccc(OC(F)(F)C(F)C(F)(F)F)cc2)c2ccc(OC(F)(F)C(F)C(F)(F)F)cc2)CCN(Cc2ccc(Oc3ncccn3)cc2)CC1 (stereo not drawn) [Compound 306] | 100% | 100%
[O-][N+]1(Cc2ccc(Oc3ccccn3)cc2)CCC(O)(C(c2ccc(OC(F)(F)F)cc2)c2cccc(Cl)c2Cl)CC1 (stereo not drawn) [Compound 456] | 100% | 100%
CC(C)OC(=O)c1ccc(CN2CCC(O)(C(c3ccc(C(F)(F)F)cc3)c3ccc(C(F)(F)F)cc3)CC2)cc1 [Compound 330] | 100% | 100%
[O-][N+]1(Cc2ccc(Oc3ncccn3)cc2)CCC(O)(C(O)(c2ccc(OC(F)(F)F)cc2)c2ccc(OC(F)(F)F)cc2)CC1 (stereo not drawn) [Compound 422] | 100% | 100%
[O-][N+]1(Cc2ccc(Oc3ccccn3)cc2)CCC(O)(C(O)(c2ccc(OC(F)(F)F)cc2)c2ccc(OC(F)(F)F)cc2)CC1 (stereo not drawn) [Compound 421] | 100% | 100%
